In US10160772B2, “5,6-dihydro-4H-benzo[b]thieno-[2,3-d]azepine derivatives” (PULMOCIDE LIMITED, priority 2014, dated 2018):
pIC50: −log10 of the molar value.

How the values were obtained:
Format in all cases: cell-based
[1] = test system: RSV A2 F-protein expression; experiment: RSV A2 F-protein expression in BEAS2B bronchial epithelial cells; conditions: human respiratory syncytial virus, BEAS-2B, 72 h, read-out: RSV A2 F-protein IC50
Experimental: Assessment of RSV F Protein Expression in BEAS2B Bronchial Epithelial Cells
An early event which follows the infection of epithelial cells by RSV is the expression of RSV F-protein on the cells' surface. BEAS2B cells (SV40-immortalised human bronchial epithelial cell line) were grown in 96 well plates. Once more than 70% confluent, cells were infected with RSV A2 (#0709161v, NCPV, Public Health England, Wiltshire) at an MOI of 0.01 in clear RPMI-1640 medium (Life technologies, Paisley, UK) with 2% FBS (Life technologies, Paisley, UK), and incubated for 3 days (37° C./5% CO2).
Supernatant was aspirated and the cells were fixed with 4% formaldehyde (100 μL in PBS solution) for 20 min, washed 3 times with washing buffer (200 μL; PBS containing 0.05% Tween-20) and incubated with blocking solution (100 μL; 5% Marvel milk in PBS) for 1 hr. Cells were then washed with washing buffer (200 μL) and incubated for 1 hr at 37° C. with anti-RSV (2F7; mouse monoclonal, lot 160290, Cat. No. ab43812, Abcam plc, Cambridge, UK) F-fusion protein antibody (50 μL; prepared at a 1:1000 dilution in 5% milk/PBS-tween). After washing, cells were incubated with an HRP-conjugated anti-mouse IgG antibody (50 μL prepared at a 1:2000 dilution in 5% milk in PBS; lot 00095437, Cat. No. P0447, Dako UK Ltd, Cambridgeshire, UK) for 1 hr. Cells were washed twice with washing buffer and once with PBS. TMB substrate (100 μL; substrate reagent pack lot 320436, Cat. No. DY999, R&D Systems, Inc. Abingdon, UK) was then added and the reaction was stopped by the addition of aq sulfuric acid (50 μL; 2N). The resultant signal was determined colourimetrically (OD: 450 nm with a reference wavelength of 655 nm) in a microplate reader (Multiskan FC®, ThermoFisher Scientific). Cells were then washed and 1% crystal violet solution (50 μL; lot SLB4576, Cat. No. HT90132-1L, Sigma-Aldrich) was applied for 30 min. After washing with PBS (200 μL) 3 times, 1% SDS (100 μL) was added to each well, and plates were shaken lightly for 1 hr prior to reading the absorbance at 595 nm. The measured OD450-655 readings were corrected for cell number by dividing the OD450-655 by the OD595 readings. The percentage inhibition for each well was calculated and the IC50 value derived from the concentration-response curve generated for each test compound.

RSV B Washington strain = experiment: RSV B-induced CPE in Hep2 cells; conditions: human respiratory syncytial virus, Hep2 cells; for pIC50: HEp-2, 144 h, RSV B Washington 0.1 MOI, 6 days, resazurin, read-out: RSV B CPE IC50; for inhibition at 1 µg/mL: HEp-2, at 1 μg/mL, read-out: RSV B CPE % Inhibition
Experimental: (§1) Biological Testing: Experimental Methods Assessment of RSV Induced CPE in Hep2 Cells
(§2) Hep2 cells were seeded (10^3/well/50 μL) in 384-well plates (Catalogue number 353962, BD Falcon, Oxford, UK) in 5% serum free-DMEM containing 2 mM L-glutamine and 1 mM sodium pyruvate one day before infection. RSV A2 strain (#0709161v, NCPV, Public Health England, Wiltshire) or RSV B Washington strain (VR-1580, ATCC, Manassas, Va. 20108) virus solutions were prepared in serum free-DMEM with 2 mM L-glutamine and 1 mM sodium pyruvate, and then added (50 μL/well) to achieve a final virus concentration of 1 MOI for RSV A and 0.1MOI for RSV B. Simultaneously test compounds (0.5 μL DMSO solution) were added to 100 μL of Hep2 cell culture with virus solution to provide a final DMSO solution of 0.5%. Plates were incubated (37° C./5% CO2) for 5 days for studies using RSV A2 strain or 6 days for those using RSV B strain, and then resazurin sodium salt (5 μL of 0.03% solution; Sigma-Aldrich, Dorset, UK) was added to each well and the plate incubated for a further 6 hr (37° C. and 5% CO2). The fluorescence of each well [545 nm (excitation)/590 nm (emission)] was determined using a multi-scanner (Clariostar: BMG, Buckinghamshire, UK). The percentage inhibition for each well was calculated and the IC50, IC75 and IC90 values were calculated from the concentration-response curve generated for each test compound.

[2] = Cell viability: resazurin assay in Hep2 cells; conditions: human, 5 days incubation
Experimental: Cell Viability: Resazurin Assay Hep2 cells were seeded in 384-well plates (10^3/well/50 μL; BD Falcon Ref 353962) in FBS DMEM (5%, containing 2 mM L-glutamine and 1 mM sodium pyruvate) one day before experimentation. Serum-free DMEM (50 μL) was added to test wells while for control wells the media was removed and sterile water (100 μL) was added. Test compounds (0.5 μL DMSO solution) were added to give a final DMSO concentration of 0.5%. Hep2 cells were incubated with each test compound for 5 days (37° C./5% CO2 in 5% FBS) and then resazurin stock solution (5 μL; 0.03%) was added to each well and the plate incubated further for a further 6 hrs (37° C./5% CO2). The fluorescence of each well at 545 nm (excitation) and 590 nm (emission) was determined using a multi-scanner (Clariostar: BMG Labtech). The percentage loss of cell viability was calculated for each well relative to vehicle (0.5% DMSO) treatment. Where appropriate, a CC50 value was calculated from the concentration-response curve generated from the concentration-response curve for each test compound.

RSV A2 strain = experiment: RSV A2-induced CPE in Hep2 cells; conditions: human respiratory syncytial virus, Hep2 cells; for pIC50: HEp-2, 120 h, RSV A2 1 MOI, 5 days, resazurin, read-out: RSV A2 CPE IC50; for inhibition at 0.1 µg/mL / inhibition at 0.01 µg/mL: HEp-2, read-out: RSV A2 CPE % Inhibition; for inhibition at 0.1 µg/mL: at 0.1 μg/mL; for inhibition at 0.01 µg/mL: at 0.01 μg/mL (footnote 2)
Experimental: as §1, §2

Row | SMILES | pIC50 (RSV B Washington strain) | pIC50 (RSV A2 strain) | pIC50 [1] | inhibition at 1 µg/mL (RSV B Washington strain) [%] | CC50 at 5 days [2] [nM] | inhibition at 0.1 µg/mL (RSV A2 strain) [%] | inhibition at 0.01 µg/mL (RSV A2 strain) [%]
1 | O=C(Nc1ccc(C(=O)N2CCc3cc(-c4nc5ccccc5[nH]4)sc3-c3ccccc32)cc1)c1cccnc1N1CC2(CCOCC2)C1 [Example 7] | 7.54 | 9.92 | 9.03 | 100 | > 15000 | 100 | 
2 | Cc1ccc(C(=O)Nc2ccc(C(=O)N3CCc4cc(-c5nc6ccccc6[nH]5)sc4-c4ccccc43)cc2)c(N2CC3(CCOCC3)C2)n1 [Example 2, N-(4-(2-(1H-Benzo[d]imidazol-2-yl)-5,6-dihydro-4H-benzo[b]thieno[2,3-d]azepine-6-carbonyl)phenyl)-6-methyl-2-(7-oxa-2-azaspiro[3,5]nonan-2-yl)nicotinamide] | 8.02 | 9.64 | 8.80 | 100 | > 14700 |  | 90
3 | N#Cc1cccc2nc(-c3cc4c(s3)-c3ccccc3N(C(=O)c3ccc(NC(=O)c5cccnc5N5CC6(CCOCC6)C5)cc3)CC4)[nH]c12 [Example 12, N-(4-(2-(7-cyano-1H-benzo[d]imidazol-2-yl)-5,6-dihydro-4H-benzo[b]thieno[2,3-d]azepine-6-carbonyl)phenyl)-2-(7-oxa-2-azaspiro[3.5]nonan-2-yl)nicotinamide] | 6.95 | 9.03 | 9.68 | 100 | > 14500 | 100 | 
4 | C#Cc1cnc(N2CC3(CCOCC3)C2)c(C(=O)Nc2ccc(C(=O)N3CCc4cc(-c5nc6ccccc6[nH]5)sc4-c4ccccc43)cc2)c1 [Example 5, N-(4-(2-(1H-Benzo[d]imidazol-2-yl)-5,6-dihydro-4H-benzo[b]thieno[2,3-d]azepine-6-carbonyl)phenyl)-5-ethynyl-2-(7-oxa-2-azaspiro[3,5]nonan-2-yl)nicotinamide] | 7.44 | 8.16 | 9.96 | 92 | > 14500 |  | 100
5 | O=C(Nc1ccc(C(=O)N2CCc3cc(-c4nc5ccccc5[nH]4)sc3-c3ccccc32)cc1)c1cc(C2CC2)cnc1N1CC2(CCOCC2)C1 [Example 6, N-(4-(2-(1H-Benzo[d]imidazol-2-yl)-5,6-dihydro-4H-benzo[b]thieno[2,3-d]azepine-6-carbonyl)phenyl)-5-cyclopropyl-2-(7-oxa-2-azaspiro[3,5]nonan-2-yl)nicotinamide] | 7.83 | 8.59 | 9.66 | 100 | > 14100 |  | 100
6 | CCc1cnc(N2CC3(CCOCC3)C2)c(C(=O)Nc2ccc(C(=O)N3CCc4cc(-c5nc6ccccc6[nH]5)sc4-c4ccccc43)cc2)c1 [Example 4, N-(4-(2-(1H-Benzo[d]imidazol-2-yl)-5,6-dihydro-4H-benzo[b]thieno[2,3-d]azepine-6-carbonyl)phenyl)-5-ethyl-2-(7-oxa-2-azaspiro[3,5]nonan-2-yl)nicotinamide] | 7.88 | 9.18 |  | 100 | > 14400 |  | 86

Further lines, with some results ahead:

Row | pIC50 (RSV B Washington strain) | pIC50 (RSV A2 strain) | SMILES | pIC50 [1] | inhibition at 1 µg/mL (RSV B Washington strain) [%] | CC50 at 5 days [2] [nM] | inhibition at 0.1 µg/mL (RSV A2 strain) [%] | inhibition at 0.01 µg/mL (RSV A2 strain) [%]
7 | 7.34 | 9.68 | COc1ccc(C(=O)Nc2ccc(C(=O)N3CCc4cc(-c5nc6ccccc6[nH]5)sc4-c4ccccc43)cc2)c(N2CC3(CCOCC3)C2)n1 [Example 21, N-(4-(2-(1H-benzo[d]imidazol-2-yl)-5,6-dihydro-4H-benzo[b]thieno[2,3-d]azepine-6-carbonyl)phenyl)-6-methoxy-2-(7-oxa-2-azaspiro[3.5]nonan-2-yl)nicotinamide] |  | 100 | > 14400 | 100 | 
8 | 7.21 | 9.85 | O=C(Nc1ccc(C(=O)N2CCc3cc(-c4nc5cccc(C(F)(F)F)c5[nH]4)sc3-c3ccccc32)cc1)c1cccnc1N1CC2(CCOCC2)C1 [Example 10, 2-(7-oxa-2-azaspiro[3.5]nonan-2-yl)-N-(4-(2-(7-(trifluoromethyl)-1H-benzo[d]imidazol-2-yl)-5,6-dihydro-4H-benzo[b]thieno[2,3-d]azepine-6-carbonyl)phenyl)nicotinamide] |  | 100 | > 13600 | 100 | 
9 | 6.99 | 9.12 | Cc1cc(C(=O)Nc2ccc(C(=O)N3CCc4cc(-c5nc6cccc(Cl)c6[nH]5)sc4-c4ccccc43)cc2)c(N2CC3(CCOCC3)C2)nc1C [Example 23, N-(4-(2-(7-chloro-1H-benzo[d]imidazol-2-yl)-5,6-dihydro-4H-benzo[b]thieno[2,3-d]azepine-6-carbonyl)phenyl)-5,6-dimethyl-2-(7-oxa-2-azaspiro[3.5]nonan-2-yl)nicotinamide] |  | 100 | > 13700 | 100 | 
10 | 7.34 | 9.55 | Cc1ccc2nc(-c3cc4c(s3)-c3ccccc3N(C(=O)c3ccc(NC(=O)c5cccnc5N5CC6(CCOCC6)C5)cc3)CC4)[nH]c2c1 [Example 11, N-(4-(2-(6-methyl-1H-benzo[d]imidazol-2-yl)-5,6-dihydro-4H-benzo[b]thieno[2,3-d]azepine-6-carbonyl)phenyl)-2-(7-oxa-2-azaspiro[3.5]nonan-2-yl)nicotinamide] |  | 100 | > 14700 | 100 | 
11 | 8.13 | 9.55 | Cc1cnc(N2CC3(CCOCC3)C2)c(C(=O)Nc2ccc(C(=O)N3CCc4cc(-c5nc6cccc(C#N)c6[nH]5)sc4-c4ccccc43)cc2)c1 [Example 18, N-(4-(2-(7-cyano-1H-benzo[d]imidazol-2-yl)-5,6-dihydro-4H-benzo[b]thieno[2,3-d]azepine-6-carbonyl)phenyl)-5-methyl-2-(7-oxa-2-azaspiro[3.5]nonan-2-yl)nicotinamide] |  | 100 | > 14200 | 100 | 
